In paper PMC4116524, “A virtual screen identified C96 as a novel inhibitor of phosphatidylinositol 3-kinase that displays potent preclinical activity against multiple myeloma in vitro and in vivo” (Oncotarget, 2014):

Experiments:
[1] = Oral LD50
[2] = test system: OPM2 cells; assay: Cell migration analysis by the transwell assay; type: cell-based; details: 6 hrs
Procedure: (§1) Next, we evaluated the effects of C96 on MM cell growth by measuring viable cells after starvation/IGF-1 stimulation in the presence of C96. As shown in Supplemental Figure 2A, IGF-1 stimulated MM cell growth, but it was suppressed by C96. We also examined the effects of C96 on MM cell migration upon IGF-1 stimulation.
This assay was performed as described previously. Briefly, MM cells OPM2, JJN3 and LP1 were serum starved overnight and then re-suspended in 70 μL of IMDM medium/0.5% fetal calf serum with or without C96. These cells were then loaded onto polycarbonate membranes (8-μm pore size) separating 2 chambers of a transwell (Corning Costar, Cambridge, MA). Medium/0.1% FCS (500 μL) containing agonist IGF-1 was added to the lower chamber of the Transwell cluster plates. After 6 hrs, cells migrating into the lower chamber were counted using a hemacytometer.
(§2) Supplementary Figure S2: C96 inhibits MM cell proliferation and migration in the presence of IGF-1. […] Cells were then incubated for another 24 hr, cell number was analyzed using MTT staining. […] Cells were loaded onto the upper chamber of a transwell, and the lower chamber was filled with IMDM containing agonist IGF-1.After 6 hrs, cells migrating into the lower chamber were counted using a hemacytometer. […]

[3] = test system: LP1, OPM2 and JJN3 cells; assay: MM cell growth after starvation/IGF-1 stimulation (MTT); type: cell-based; details: 0.5% FBS 12 hrs, IGF-1 100 ng/mL, 24 hrs
From the text: as §1
MM cells were dispensed in 96-well plates at a density of 8×10^3 cells per well and treated with increasing concentrations of C96 for 72 hrs, and the growth inhibitory effect of C96 on MM cells was assessed by an MTT assay as reported previously. To show the effect of C96 on cell growth in the presence of growth factor IGF-1, MM cells were first maintained in IMDM media containing 0.5% FBS for 12 hrs, followed by C96 treatment alone or in combination with 100 ng/mL of IGF-1. Cells were then incubated for another 24 hrs, relative cell proliferation was analyzed by an MTT assay.
as §2

[4] = target: T1, PI3Kγ (Homo sapiens, UniProt P48736); assay: Kinase activity in cell-free assay (HotSpot); type: biochemical
T1 construct: purchased Reaction Biology Corp
Procedure: (§3) Kinase activity in the presence of C96 was performed by using the HotSpot technology (Reaction Biology Corp., Malvern, PA, USA). Briefly, kinases (PI3Kα, β, δ, γ, AKT1, 2, 3, and mTOR) and substrates were diluted in reaction buffer. Subsequently, 5 nL of serially diluted C96 (in pure DMSO) was delivered into diluted kinase and substrate mixture by using Echo 550 (LabCyte Inc. Sunnyvale, CA). The reaction was started by adding ^33P-ATP (hot ATP) into the reaction mixture (the final concentration was 10 μM) and stopped after 2 hrs incubation at room temperature. The un-reacted hot ATP was washed away before detection.

[5] = target: T2, PI3Kβ (Homo sapiens, UniProt P42338); assay: Kinase activity in cell-free assay (HotSpot); type: biochemical
T2 construct: purchased Reaction Biology Corp
Procedure: as §3

[6] = target: T3, mTOR (Homo sapiens, UniProt P42345); assay: Kinase activity in cell-free assay (HotSpot); type: biochemical
T3 construct: purchased Reaction Biology Corp
Procedure: as §3

[7] = target: T4, PI3Kδ (Homo sapiens, UniProt O00329); assay: Kinase activity in cell-free assay (HotSpot); type: biochemical
T4 construct: purchased Reaction Biology Corp
Procedure: as §3

[8] = target: T5, PI3Kα (Homo sapiens, UniProt P42336); assay: Kinase activity in cell-free assay (HotSpot); type: biochemical
T5 construct: purchased Reaction Biology Corp
Procedure: as §3

[9] = target: T6, AKT3 (Homo sapiens, UniProt Q9Y243); assay: Kinase activity in cell-free assay (HotSpot); type: biochemical
T6 construct: purchased Reaction Biology Corp
Procedure: as §3

[10] = target: T7, AKT1 (Homo sapiens, UniProt P31749); assay: Kinase activity in cell-free assay (HotSpot); type: biochemical
T7 construct: purchased Reaction Biology Corp
Procedure: as §3

[11] = target: T8, AKT2 (Homo sapiens, UniProt P31751); assay: Kinase activity in cell-free assay (HotSpot); type: biochemical
T8 construct: purchased Reaction Biology Corp
Procedure: as §3

T7 sequence (P31749 whole entry): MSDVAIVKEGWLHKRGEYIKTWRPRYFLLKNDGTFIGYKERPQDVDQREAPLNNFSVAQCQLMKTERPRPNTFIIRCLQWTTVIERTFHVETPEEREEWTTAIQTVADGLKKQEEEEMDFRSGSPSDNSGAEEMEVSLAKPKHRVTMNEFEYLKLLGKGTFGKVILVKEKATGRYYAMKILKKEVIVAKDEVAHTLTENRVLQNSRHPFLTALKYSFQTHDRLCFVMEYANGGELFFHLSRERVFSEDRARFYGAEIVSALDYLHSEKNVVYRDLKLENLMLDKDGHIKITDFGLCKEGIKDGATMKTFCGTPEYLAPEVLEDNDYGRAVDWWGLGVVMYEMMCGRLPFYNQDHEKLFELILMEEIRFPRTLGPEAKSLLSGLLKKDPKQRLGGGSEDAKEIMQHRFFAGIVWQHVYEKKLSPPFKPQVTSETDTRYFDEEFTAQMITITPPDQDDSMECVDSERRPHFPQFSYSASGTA
T6 sequence (Q9Y243 whole entry): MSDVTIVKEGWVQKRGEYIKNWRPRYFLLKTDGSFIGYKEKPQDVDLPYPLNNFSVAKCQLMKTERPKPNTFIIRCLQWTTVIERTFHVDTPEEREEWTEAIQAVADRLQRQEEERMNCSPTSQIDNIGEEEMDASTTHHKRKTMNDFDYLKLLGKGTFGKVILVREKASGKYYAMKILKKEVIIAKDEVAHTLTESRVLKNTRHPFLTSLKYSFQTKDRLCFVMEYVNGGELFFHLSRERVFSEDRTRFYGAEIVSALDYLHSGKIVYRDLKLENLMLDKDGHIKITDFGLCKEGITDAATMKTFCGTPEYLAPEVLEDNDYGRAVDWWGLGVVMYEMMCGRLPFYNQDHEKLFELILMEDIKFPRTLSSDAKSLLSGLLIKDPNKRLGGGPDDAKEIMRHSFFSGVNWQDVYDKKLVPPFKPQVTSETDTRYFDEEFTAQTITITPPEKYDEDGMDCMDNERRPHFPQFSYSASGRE
T8 sequence (P31751 whole entry): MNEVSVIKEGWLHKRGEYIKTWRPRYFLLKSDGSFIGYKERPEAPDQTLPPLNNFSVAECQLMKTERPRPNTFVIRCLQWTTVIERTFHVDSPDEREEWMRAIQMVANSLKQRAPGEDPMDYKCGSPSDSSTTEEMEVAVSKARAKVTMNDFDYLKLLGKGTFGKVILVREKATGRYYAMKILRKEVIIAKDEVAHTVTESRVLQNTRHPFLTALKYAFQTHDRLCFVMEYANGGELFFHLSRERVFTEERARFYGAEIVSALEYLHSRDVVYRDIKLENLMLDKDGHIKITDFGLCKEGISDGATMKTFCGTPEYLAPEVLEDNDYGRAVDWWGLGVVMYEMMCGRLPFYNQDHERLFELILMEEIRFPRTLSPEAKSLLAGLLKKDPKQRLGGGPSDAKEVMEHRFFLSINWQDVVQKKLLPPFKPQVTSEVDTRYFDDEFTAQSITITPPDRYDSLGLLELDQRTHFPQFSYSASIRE
T5 sequence (P42336 whole entry): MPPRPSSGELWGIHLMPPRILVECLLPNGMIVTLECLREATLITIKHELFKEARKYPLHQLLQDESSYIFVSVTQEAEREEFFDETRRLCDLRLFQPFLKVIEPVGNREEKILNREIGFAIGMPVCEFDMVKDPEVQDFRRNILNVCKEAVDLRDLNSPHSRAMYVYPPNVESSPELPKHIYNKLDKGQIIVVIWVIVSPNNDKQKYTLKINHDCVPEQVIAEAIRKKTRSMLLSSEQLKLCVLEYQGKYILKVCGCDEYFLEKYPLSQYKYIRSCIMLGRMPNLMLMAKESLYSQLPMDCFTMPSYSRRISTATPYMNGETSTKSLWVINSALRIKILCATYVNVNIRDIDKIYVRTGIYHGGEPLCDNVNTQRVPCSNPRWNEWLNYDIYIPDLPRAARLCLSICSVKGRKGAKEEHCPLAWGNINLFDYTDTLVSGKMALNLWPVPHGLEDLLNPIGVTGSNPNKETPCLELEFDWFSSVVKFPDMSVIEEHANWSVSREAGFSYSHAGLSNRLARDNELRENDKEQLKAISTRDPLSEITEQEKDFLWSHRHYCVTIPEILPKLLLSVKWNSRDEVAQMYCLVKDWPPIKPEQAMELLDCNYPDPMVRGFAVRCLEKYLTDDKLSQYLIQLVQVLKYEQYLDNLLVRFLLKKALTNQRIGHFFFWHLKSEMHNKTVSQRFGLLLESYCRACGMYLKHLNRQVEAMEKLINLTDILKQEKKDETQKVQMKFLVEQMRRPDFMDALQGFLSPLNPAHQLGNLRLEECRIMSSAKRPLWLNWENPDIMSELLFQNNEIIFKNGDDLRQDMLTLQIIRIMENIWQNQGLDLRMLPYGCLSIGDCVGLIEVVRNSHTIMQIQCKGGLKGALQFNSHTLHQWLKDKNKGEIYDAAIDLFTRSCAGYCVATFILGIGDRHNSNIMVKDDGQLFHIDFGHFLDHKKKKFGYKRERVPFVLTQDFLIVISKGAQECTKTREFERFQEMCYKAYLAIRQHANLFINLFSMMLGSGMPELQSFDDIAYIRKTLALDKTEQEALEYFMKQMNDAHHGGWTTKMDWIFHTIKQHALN
T5 sequence (P27986 whole entry partner): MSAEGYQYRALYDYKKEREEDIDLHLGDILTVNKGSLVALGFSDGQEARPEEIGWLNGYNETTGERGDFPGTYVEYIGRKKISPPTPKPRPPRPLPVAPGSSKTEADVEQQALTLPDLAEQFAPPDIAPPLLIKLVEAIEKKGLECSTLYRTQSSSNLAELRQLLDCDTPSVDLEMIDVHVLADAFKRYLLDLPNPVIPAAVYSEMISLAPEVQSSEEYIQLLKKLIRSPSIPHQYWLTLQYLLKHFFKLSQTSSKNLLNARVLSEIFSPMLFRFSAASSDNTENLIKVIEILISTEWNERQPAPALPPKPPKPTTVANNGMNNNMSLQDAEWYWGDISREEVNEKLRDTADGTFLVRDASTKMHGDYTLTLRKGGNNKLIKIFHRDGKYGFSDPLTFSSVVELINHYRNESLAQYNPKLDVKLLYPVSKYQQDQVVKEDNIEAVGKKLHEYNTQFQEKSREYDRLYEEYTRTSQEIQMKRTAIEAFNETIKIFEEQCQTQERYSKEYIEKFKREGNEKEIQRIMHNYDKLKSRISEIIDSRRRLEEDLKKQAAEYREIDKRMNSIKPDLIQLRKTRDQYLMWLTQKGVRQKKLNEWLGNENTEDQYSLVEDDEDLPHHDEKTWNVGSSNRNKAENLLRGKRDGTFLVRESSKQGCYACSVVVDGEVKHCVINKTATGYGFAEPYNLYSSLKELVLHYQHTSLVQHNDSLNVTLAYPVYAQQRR
T4 sequence (O00329 whole entry): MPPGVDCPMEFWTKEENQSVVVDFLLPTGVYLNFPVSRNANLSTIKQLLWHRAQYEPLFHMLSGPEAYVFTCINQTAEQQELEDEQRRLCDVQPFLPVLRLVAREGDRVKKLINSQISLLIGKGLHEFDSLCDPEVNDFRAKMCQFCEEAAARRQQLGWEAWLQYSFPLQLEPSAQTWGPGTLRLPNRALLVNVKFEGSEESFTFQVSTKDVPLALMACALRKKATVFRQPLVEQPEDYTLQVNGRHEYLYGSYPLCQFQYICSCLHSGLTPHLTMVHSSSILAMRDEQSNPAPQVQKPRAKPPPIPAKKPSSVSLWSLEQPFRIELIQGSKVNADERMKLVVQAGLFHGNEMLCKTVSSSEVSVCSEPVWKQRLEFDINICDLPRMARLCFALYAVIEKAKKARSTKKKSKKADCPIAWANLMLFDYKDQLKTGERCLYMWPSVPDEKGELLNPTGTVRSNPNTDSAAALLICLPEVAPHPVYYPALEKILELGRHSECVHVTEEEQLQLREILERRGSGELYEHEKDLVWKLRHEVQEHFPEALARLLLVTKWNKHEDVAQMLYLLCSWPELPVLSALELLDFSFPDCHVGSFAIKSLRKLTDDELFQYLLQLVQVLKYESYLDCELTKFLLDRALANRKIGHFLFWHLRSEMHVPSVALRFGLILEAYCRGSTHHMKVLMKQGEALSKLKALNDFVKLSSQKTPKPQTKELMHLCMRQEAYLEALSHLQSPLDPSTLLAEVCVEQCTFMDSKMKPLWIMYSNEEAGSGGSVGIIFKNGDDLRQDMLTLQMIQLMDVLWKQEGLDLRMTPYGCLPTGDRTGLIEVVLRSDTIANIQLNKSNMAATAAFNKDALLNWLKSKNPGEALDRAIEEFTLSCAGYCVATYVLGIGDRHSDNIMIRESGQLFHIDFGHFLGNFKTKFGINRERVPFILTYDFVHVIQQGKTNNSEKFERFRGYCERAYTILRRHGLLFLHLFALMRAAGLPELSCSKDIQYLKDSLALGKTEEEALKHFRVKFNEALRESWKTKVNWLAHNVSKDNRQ
T4 sequence (P27986 whole entry partner): as the sequence (P27986 whole entry partner) above

O=C1NC(=O)C(=CC=Cc2cccs2)C(=O)N1 [C96, 5-(3-(2-thienyl)-2-propen-1-ylidene)-2,4,6(1H,3H,5H)-pyrimidinetrione]
100 mg/kg body weight dose as fraction of the oral LD50 [1]: 1/10 | migration through 8-micrometer transwell membrane in the presence of IGF-1 [2]: partly suppressed | IGF-1 stimulated MM cell growth [3]: suppressed | IC50 [4]: 116 µM | IC50 [5]: 134 µM | enzymatic activity mTOR ([6]; 300 μM): higher than 50% | mTOR catalytic activity ([6]; C96 1.00E-04 M): 101.78% | mTOR catalytic activity ([6]; C96 1.11E-05 M): 102.93% | mTOR catalytic activity ([6]; C96 1.23E-06 M): 99.81% | mTOR catalytic activity ([6]; C96 1.37E-07 M): 100.28% | mTOR catalytic activity ([6]; C96 1.52E-08 M): 96.95% | mTOR catalytic activity ([6]; C96 3.00E-04 M): 102.57% | mTOR catalytic activity ([6]; C96 3.33E-05 M): 100.02% | mTOR catalytic activity ([6]; C96 3.70E-06 M): 101.74% | mTOR catalytic activity ([6]; C96 4.12E-07 M): 99.37% | mTOR catalytic activity ([6]; C96 4.57E-08 M): 99.19% | IC50 mTOR ([6]; cell-free): not detectable | EC50 [7]: ~5 µM | IC50 [7]: 7.05 µM | EC50 [8]: ~5 µM | IC50 [8]: 5.41 µM | enzymatic activity AKT3 ([9]; 300 μM): higher than 50% | AKT3 catalytic activity ([9]; C96 1.00E-04 M): 98.26% | AKT3 catalytic activity ([9]; C96 1.11E-05 M): 100.98% | AKT3 catalytic activity ([9]; C96 1.23E-06 M): 100.31% | AKT3 catalytic activity ([9]; C96 1.37E-07 M): 100.29% | AKT3 catalytic activity ([9]; C96 1.52E-08 M): 109.49% | AKT3 catalytic activity ([9]; C96 3.00E-04 M): 79.18% | AKT3 catalytic activity ([9]; C96 3.33E-05 M): 108.59% | AKT3 catalytic activity ([9]; C96 3.70E-06 M): 117.76% | AKT3 catalytic activity ([9]; C96 4.12E-07 M): 106.62% | AKT3 catalytic activity ([9]; C96 4.57E-08 M): 102.54% | IC50 AKT3 ([9]; cell-free): not detectable | enzymatic activity AKT1 ([10]; 300 μM): higher than 50% | AKT1 catalytic activity ([10]; C96 1.00E-04 M): 89.13% | AKT1 catalytic activity ([10]; C96 1.11E-05 M): 104.72% | AKT1 catalytic activity ([10]; C96 1.23E-06 M): 101.71% | AKT1 catalytic activity ([10]; C96 1.37E-07 M): 102.27% | AKT1 catalytic activity ([10]; C96 1.52E-08 M): 94.32% | AKT1 catalytic activity ([10]; C96 3.00E-04 M): 57.61% | AKT1 catalytic activity ([10]; C96 3.33E-05 M): 100.86% | AKT1 catalytic activity ([10]; C96 3.70E-06 M): 110.72% | AKT1 catalytic activity ([10]; C96 4.12E-07 M): 99.76% | AKT1 catalytic activity ([10]; C96 4.57E-08 M): 103.80% | IC50 AKT1 ([10]; cell-free): not detectable | enzymatic activity AKT2 ([11]; 300 μM): higher than 50% | AKT2 catalytic activity ([11]; C96 1.11E-05 M): 102.16% | AKT2 catalytic activity ([11]; C96 1.23E-06 M): 97.18% | AKT2 catalytic activity ([11]; C96 1.37E-07 M): 97.27% | AKT2 catalytic activity ([11]; C96 1.52E-08 M): 95.67% | AKT2 catalytic activity ([11]; C96 3.00E-04 M): 86.10% | AKT2 catalytic activity ([11]; C96 3.33E-05 M): 100.38% | AKT2 catalytic activity ([11]; C96 3.70E-06 M): 102.25% | AKT2 catalytic activity ([11]; C96 4.12E-07 M): 100.48% | AKT2 catalytic activity ([11]; C96 4.57E-08 M): 100.26% | IC50 AKT2 ([11]; cell-free): not detectable
